# In patent US4307094A, “Triazolopyridazine derivatives” (Hoffmann-La Roche Inc., priority 1979, dated 1981):
# Molecular target: T1, angiotensin converting enzyme (Oryctolagus cuniculus, UniProt P12822)
# T1 sequence (P12822 34-1310): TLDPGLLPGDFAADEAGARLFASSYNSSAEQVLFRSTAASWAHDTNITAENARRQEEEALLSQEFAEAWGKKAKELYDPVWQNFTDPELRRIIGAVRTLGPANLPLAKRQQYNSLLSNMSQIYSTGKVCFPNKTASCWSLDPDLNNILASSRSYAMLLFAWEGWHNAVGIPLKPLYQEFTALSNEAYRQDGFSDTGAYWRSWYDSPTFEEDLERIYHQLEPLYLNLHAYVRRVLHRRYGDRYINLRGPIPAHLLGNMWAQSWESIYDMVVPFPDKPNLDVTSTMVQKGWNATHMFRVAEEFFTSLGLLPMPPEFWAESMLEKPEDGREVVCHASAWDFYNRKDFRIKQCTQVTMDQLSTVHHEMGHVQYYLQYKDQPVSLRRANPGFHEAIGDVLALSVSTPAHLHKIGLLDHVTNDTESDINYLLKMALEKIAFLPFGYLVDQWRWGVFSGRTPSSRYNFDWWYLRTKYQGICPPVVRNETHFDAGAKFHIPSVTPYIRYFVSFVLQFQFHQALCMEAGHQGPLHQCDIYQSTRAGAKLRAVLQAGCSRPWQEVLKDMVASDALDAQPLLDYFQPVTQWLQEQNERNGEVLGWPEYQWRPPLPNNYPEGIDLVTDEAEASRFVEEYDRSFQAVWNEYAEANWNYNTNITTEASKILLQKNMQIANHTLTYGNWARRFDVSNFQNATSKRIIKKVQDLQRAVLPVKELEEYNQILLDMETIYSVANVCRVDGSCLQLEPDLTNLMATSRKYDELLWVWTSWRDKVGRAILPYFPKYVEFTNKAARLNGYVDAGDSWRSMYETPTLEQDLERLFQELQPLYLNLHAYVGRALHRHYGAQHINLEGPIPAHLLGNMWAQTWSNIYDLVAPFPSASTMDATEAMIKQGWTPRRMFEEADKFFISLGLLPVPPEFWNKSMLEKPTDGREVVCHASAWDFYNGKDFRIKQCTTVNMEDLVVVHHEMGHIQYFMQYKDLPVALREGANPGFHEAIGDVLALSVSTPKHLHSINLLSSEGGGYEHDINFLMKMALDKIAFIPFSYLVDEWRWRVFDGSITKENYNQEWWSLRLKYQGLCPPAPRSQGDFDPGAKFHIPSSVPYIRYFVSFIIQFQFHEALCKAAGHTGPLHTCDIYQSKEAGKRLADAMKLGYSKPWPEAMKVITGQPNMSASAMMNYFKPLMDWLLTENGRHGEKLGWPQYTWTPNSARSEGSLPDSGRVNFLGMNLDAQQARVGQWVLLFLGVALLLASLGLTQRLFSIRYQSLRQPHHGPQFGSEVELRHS
# Assay: inhibition of angiotensin converting enzyme in vitro (cleavage of hippuryl-histidyl-leucine)
# Format: biochemical
# Conditions: substrate hippuryl-histidyl-leucine 2 mM, potassium phosphate buffer pH 8.3 (100 mM), NaCl 300 mM, 25 minutes, 37° C.
# Experimental: The activity of the present triazolopyridazine derivatives in inhibiting angiotensin converting enzyme in vitro can be determined by the following test.
# The method used is based on the method of Cushman and Cheung (Biochem. Pharmacol., 20, 1637-1648) incorporating the modifications introduced by Hayakari et al. (Anal. Biochem., 84, 361-369). The substrate (hippuryl-histidyl-leucine, 2 mM) is incubated with angiotensin converting enzyme in the presence or absence of various concentrations of test substance in potassium phosphate buffer (pH 8.3; 100 mM) containing sodium chloride (300 mM) for 25 minutes at 37° C. (total […] 500 μl). The reaction is terminated by the addition of 3 ml of potassium phosphate buffer (pH 8.3; 200 mM) at 0° C. 2,4,6-trichloro-s-triazine (3%) in 1.5 ml of dioxan is added, and the mixture is agitated until the yellow chromophore has developed fully. The samples are then centrifuged to remove any precipitate which has formed. The yellow chromophore formed by the reaction of the 2,4,6-trichloro-s-triazine with free hippuric acid is measured spectrophotometrically at 382 nm. IC50 values are defined as the concentration of test substance which reduces by 50% the cleavage of hippuryl-histidyl-leucine by angiotensin converting enzyme under the aforementioned conditions.
row,IC50 [µM],SMILES
1,3.3,"O=C(CCn1c(=O)n2n(c1=O)C(C(=O)O)C=CC2)NO (stereo not shown) [Compound C, 2-[2-(N-hydroxycarbamoyl)ethyl]-2,3,5,8-tetrahydro-1,3-dioxo-1H-1,2,4-triazolo[1,2-a]pyridazine-5-carboxylic acid]"
2,0.48,"O=C(O)C1C=CCn2c(=O)n(CCS)c(=O)n21 (stereo not shown) [Compound D, 2,3,5,8-tetrahydro-2-(2-mercaptoethyl)-1,3-dioxo-1H-1,2,4-triazolo[1,2-a]pyridazine-5-carboxylic acid]"
3,18,"O=C(O)CCn1c(=O)n2n(c1=O)C(C(=O)O)C=CC2 (stereo not shown) [Compound A, 5-carboxy-2,3,5,8-tetrahydro-1,3-dioxo-1H-1,2,4-triazolo[1,2-a]pyridazine-2-propionic acid]"
4,65,"NC(=O)CCn1c(=O)n2n(c1=O)C(C(=O)O)C=CC2 (stereo not shown) [Compound B, 2-(2-carbamoylethyl)-2,3,5,8-tetrahydro-1,3-dioxo-1H-1,2,4-triazolo[1,2-a]-pyridazine-5-carboxylic acid]"
